Data taken from paper PMC9696974 (Pharmaceutics, 2022).
Read-outs that look alike come from different tables or passages of the source.

Key:
A549 cells = test: Mitochondrial ROS (MitoSOX Red); format: cell-based, human; settings: A549, 1 µM plus UV irradiation, vs DMSO and 1M alone
Protocol: For measuring mitochondrial ROS, A549 cells were treated with 1 μM of the respective compound and incubated for 90 min (37 °C, 5% CO2), allowing the compound to enter to cells. Mitochondrial superoxide production was assessed with MitoSOX Red reagent (Thermo Fisher Scientific, Waltham, MA). The cells were washed with PBS and trypsinized, and then kept on ice unless otherwise specified. Cells were distributed into small tubes (3 × 10^5 cells per tube) and resuspended in 5 µM MitoSOX solution prepared in PBS. The cells were incubated on a thermomixer for 30 min at 37 °C, with shaking (300 rpm), in the dark, followed by two washes with PBS. Then, cells dyed with MitoSOX were re-suspended in 400 µL of PBS and distributed into black 96-well plates, 120 µL per well (in triplicate). A Tecan Infinite 200 fluorescence microplate reader with 485/520 and 520/590 nm excitation/emission wavelengths was used to measure MitoSOX fluorescence.

[1] = tested on: poly A-poly U (AU-RNA, pApU) (RNA, polymer) A/U; test: UV thermal denaturation at 260 nm; settings: Na+ (sodium cacodylate, I = 50 mM); pH 7.0; r = [compound]/[polynucleotide] = 0.2; error ± 0.5 °C; per base
ct-DNA = tested on: ct-DNA; design: method as in PMID 33231335; settings: I = 50 mM, cited from earlier work
Solubility in water = format: physicochemical
[2] = pKa from pH dependence of UV/vis spectrum; format: physicochemical; settings: water (0.001 M HCl in miliQ water, titrated with NaOH), UV/vis spectra vs pH in water, c = 2.0 × 10^−5 M

Compound | mtROS levels (MitoSOX Red) (A549 cells) | ∆Tm [1] [°C] | ∆Tm ct-DNA (ct-DNA; r = 0.2, pH 7.0, sodium cacodylate buffer) | ∆Tm ct-DNA (ct-DNA; r = 0.3, pH 7.0, sodium cacodylate buffer) | Solubility in water (Solubility in water) | pKa [2]
C[n+]1ccc(-c2cc3ccc4cccc5ccc(c2)c3c45)cc1 [1M, 2-para-N-methylpyridinium pyrene] | significantly increased mtROS levels | 3 | ^c 2 °C | ^c 2 °C | – | –
C[n+]1ccc(-c2cc3ccc4cc(-c5cc[n+](C)cc5)cc5ccc(c2)c3c45)cc1 [2M] | – | 4 | – | – | – | –
c1cc2ccc3cc(-c4ccncc4)cc4ccc(c1)c2c34 [compound 1] | – | – | – | – | poorly soluble in water | ~5
